# Assay results taken from patent US20060247251A1, “2-Cyanopyrrolopyrimidines and pharmaceutical uses thereof” (priority 2003, published 2006).
# pIC50: −log10 of the molar value.
# Target: recombinant human cathepsin S (Homo sapiens, UniProt P25774)
# Assay: in vitro cathepsin S assay
# Format: biochemical
# Details: substrate Z-Leu-Leu-4-methylcoumaryl-7-amide, pH 7.0, ambient temperature, read-out: IC50 for the inhibition of human cathepsin S
# Protocol: The in vitro assay is carried out in clear, flat-bottomed, 96-well microtiter plates (Greiner GmbH, Germany) at ambient temperature using recombinant human cathepsin S. Inhibition of human cathepsin S is assayed at a constant enzyme and various substrate concentrations (substrate is Z-Leu-Leu-4-methylcoumaryl-7-amide (Bachem (Switzerland)) in 100 parts 0.2M sodium phosphate, pH 7.0, containing 2 mM EDTA, 2 parts 1% Triton X-100, 10 parts 20 mM dithlothreitol (DTT) and 58 parts distilled water. The assay is started by adding the enzyme solution (13 times higher concentration of final concentration of recombinant human Cathepsin S) to the reaction mixture containing various concentrations of the corresponding substrate and the compound. Substrate concentrations between 3.4 and 17 μM are used. The recombinant human Cathepsin S is used at a final concentration of 0.04 nM. Test compounds are used at concentrations between 0.4 and 2 times the determined IC50 of the compound at the enzyme. The relative fluorescence is continuously measured for 30 minutes and the initial velocity is obtained from each progress curve. […]
# Chain of recombinant human cathepsin S (P25774 115-331): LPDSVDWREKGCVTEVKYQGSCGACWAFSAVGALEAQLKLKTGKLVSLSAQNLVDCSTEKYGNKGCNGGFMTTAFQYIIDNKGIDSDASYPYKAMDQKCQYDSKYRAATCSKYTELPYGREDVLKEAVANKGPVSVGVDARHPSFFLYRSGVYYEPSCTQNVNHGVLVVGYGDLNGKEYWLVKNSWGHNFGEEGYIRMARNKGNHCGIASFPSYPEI
row,Compound,pIC50
1,CCCNC(=O)c1ccc(OCc2cc3cnc(C#N)nc3n2CCC2CCCCC2)c(Cl)c1 [Example 54],7.49
2,N#Cc1ncc2cc(Cc3ccc(F)c(F)c3)n(CCc3ccc(Cl)cc3)c2n1 [Example 169],7.52
3,CC(C)CCn1c(Cc2cccs2)cc2cnc(C#N)nc21 [Example 193],8.39

# More lines, now with the values ahead:
row,pIC50,Compound
1,7.46,"N#Cc1ncc2cc(Cc3ccc(N4CCCC4=O)cc3)n(CCC3CCCCC3)c2n1 [Example 179, 7-(2-Cyclohexyl-ethyl)-6-[4-(2-oxo-pyrrolidin-1-yl)-benzyl]-7H-pyrrolo[2,3-d]pyrimidine-2-carbonitrile]"
2,7.32,"CC(=O)N1CCC2(CCN(Cc3cc4cnc(C#N)nc4n3CCC3CCCCC3)CC2)C1 [Example 335, 6-(2-Acetyl-2,8-diaza-spiro[4,5]dec-8-ylmethyl)-7-(2-cyclohexyl-ethyl)-7H-pyrrolo[2,3-d]pyrimidine-2-carbonitrile]"
3,7.48,N#Cc1ncc2cc(CN3CCCC3)n(CCC3CCCCC3)c2n1 [Example 278]
4,8.29,CC(C)(C)CCn1c(Cc2ccc(CO)cc2)cc2cnc(C#N)nc21 [Example 175]
